Experiments:
[1] = tested on: CS-56; assay: CS-56 expression in tumor cells in vitro; format: cell-based; settings: data not shown
[2] = tested on: cleaved caspase-3; assay: Western blot of cleaved caspase-3 in whole-hemisphere lysates, C6 rat glioma model; format: in vivo; settings: 6 d of pio treatment
Procedure: (§1) For western-blot analysis, tumor-containing hemispheres were homogenized in Tris-HCl [50 mM Tris-HCl pH8, 120 mM NaCl, 5 mM EDTA, 0.5% (v/v) NP-40, […] phenylmethylsulfonyl fluoride (PMSF)] and sonicated. Homogenates were collected by centrifugation (15 min 11000 g. 4° C.) and protein concentration in the supernatant was determined using the Bio-Rad Protein Assay (Biorad, Munich, Germany). Lysates (20-40 μg) were separated on a 7% (w/v) sodium dodecyl sulfate (SDS)-polyacrylamide gel under reducing conditions and transferred to a PVDF membrane (Millipore, Bedford, Mass., USA). Non-specific binding was blocked by incubation with 5% (w/v) skimmed milk in TBS for 2 h. Following incubation with the primary antibody overnight at 4° C. [rabbit anti-BAX 1:1000, rabbit anti-cleaved caspase-3 1:1000, mouse […] 1:1000, goat anti-MMP-9 1:1000 in TBS containing 0.1% (v/v) Tween 20] membranes were washed three times in TBS/Tween for 5 min and subsequently incubated for 120 min in TBS/Tween containing secondary peroxidase-conjugated antibody at room temperature (anti-rabbit 1:1000, anti-mouse 1:1000; anti-goat 1:1000 respectively). Signals were visualized by chemoluminescence (Pierce, Rockford, Ill., USA) and band intensities were quantified with NIH Image 1.62 software (Bethesda, Md., USA).

[3] = tested on: C6 glioma tumor cells; assay: TUNEL assay for apoptosis in tumors, C6 rat glioma model; format: in vivo; settings: 9 days of pio treatment
Procedure: Frozen brain tissue sections were examined for apoptosis using the terminal deoxynucleotidyl transferase-mediated dUTP transferase nick-end labeling (TUNEL assay). Apoptosis was evaluated using the Promega DeadEnd Fluorometric Tunel System (Promega, Madison, Wis., USA) according to the manufacturer's instructions. The percentage of TUNEL positive cells was assessed by counting the immunopositve cells in 1×10^3 tumor (DAPI stain) cells and statistically compared.

[4] = tested on: Bax; assay: Western blot of Bax in whole-hemisphere lysates, C6 rat glioma model; format: in vivo
Procedure: as §1

[5] = tested on: human glioma cells U87; assay: MTT viability assay, human U87 glioma cells; format: cell-based; settings: 30 μM pio; 3, 5 and 7 d
Procedure: (§2) Rat C6 glioma cells were grown in DMEM and human glioma cells (U87, A172) in RPMI, supplemented with 10% (v/v) fetal calf serum, 100 U/mL penicillin and 100 U/mL streptomycin in a 5% CO2 atmosphere. Primary astrocyte cultures were prepared as described previously (J Neurosci 1998; 18: 4451-60) and grown in DMEM, supplemented with 2.5% (v/v) fetal calf serum, 100 U/mL penicillin and 100 U/mL streptomycin in a 5% CO2 atmosphere. […] Experiments were performed in triplicate.

[6] = tested on: C6 glioma cell cultures; assay: Ki-67 immunoreactivity and proliferation-index in vitro; format: cell-based, rat; settings: 30 μM pio, 2 d and 5 d
Procedure: C6 glioma cell cultures were treated with pio or vehicle for 2 d and 5 d and fixed in 4% paraformaldehyde, rinsed in TBS and incubated with rabbit anti-Ki-67 (1:200 dilution) at 4° C. overnight and processed as described above. Counterstaining was carried out with propidium iodide (P1; 1:40; Sigma, St. Louis, Mo., USA) or DAPI-staining (1:500 in PBS). For determination of the proliferation-index, Ki-67 positive cells in pio and vehicle treated cells and animals were counted, the percentage of Ki-67 positive cells in 1×10^3 tumor cells (P1 staining used in the in vitro experiments—not shown; DAPI stain used in the in vivo experiments) calculated and statistically compared. The percentage of cleaved caspase-3 positive cells was assessed by counting the immunopositive cells in 1×10^3 tumor (DAPI stain) cells and statistically compared.

[7] = tested on: primary astrocytes; assay: MTT viability assay, primary astrocytes; format: cell-based; settings: 1, 10, 30 μM; 1, 3, 5, 7 d
Procedure: as §2

[8] = tested on: Ki-67; assay: Ki-67 immunoreactivity and proliferation-index in vivo; parameters: species or system rat; settings: 9, 14 and 21 days of pio treatment
Procedure: Frozen brain sections were first blocked with 5% normal goat serum or normal horse serum in PBS and subsequently incubated with rabbit anti-Ki-67 antibody (1:200 dilution), mouse anti-CS-56 (1:100 dilution), goat anti-MMP-9 (1:100 dilution) or rabbit anti-cleaved caspase-3 antibody (1:200 dilution) at 4° C. overnight. Sections were washed extensively with PBS before incubation with secondary antibodies. Incubation was carried at room temperature for 1 h. After washing with PBS three times, stained slides were mounted with PBS/glycerol (1:1) and viewed under a fluorescent microscope (Leica, Germany). For determination of the proliferation-index, Ki-67 positive cells in pio and vehicle treated cells and animals were counted, the percentage of Ki-67 positive cells in 1×10^3 tumor cells (P1 staining used in the in vitro experiments—not shown; DAPI stain used in the in vivo experiments) calculated and statistically compared. The percentage of cleaved caspase-3 positive cells was assessed by counting the immunopositive cells in 1×10^3 tumor (DAPI stain) cells and statistically compared.

## CCc1ccc(CCOc2ccc(CC3SC(=O)NC3=O)cc2)nc1 (stereo not shown) [pioglitazone, 5-[4-[2-(5-ethylpyridin-2-yl)ethoxyl]benzyl]thiazolidine-2,4-dione]
[1]
  CS-56 expression in vitro: highly upregulated
[2]
  induction of cleaved caspase-3 (densitometry): 2.88 fold
[3]
  TUNEL staining: Increased TUNEL staining
[4]; 3, 6, 9 and 14 d
  Bax-protein levels versus vehicle (densitometry), in words: significant difference
[4]; 6 d of pio treatment
  induction of Bax protein (densitometry): 1.66 fold
[4]; after 21 days of treatment (data not shown)
  upregulation of proapoptotic proteins: not associated with an upregulation of proapoptotic proteins
[5]
  cellular viability, effect in words: significantly reduced cellular viability
[6]
  number of Ki-67 immunopositive cells compared to vehicle: reduced the number of Ki-67 immunopositive cells
[7]
  viability of primary astrocytes: not affected
[8]
  Ki-67 expression in vivo: significant reduction of Ki-67 expression

— patent US20100022600A1, “METHODS AND COMPOSITIONS FOR TREATING CENTRAL NERVOUS SYSTEM TUMORS” (priority 2006, published 2010)
